Experimental data: patent publication US20240252517A1, “MINERALOCORTICOID RECEPTOR ANTAGONISTS FOR THE PREVENTION AND/OR TREATMENT OF A CORONAVIRUS INFECTION” (Imaginatives Group Limited, priority 2021, published 2024)

Assays:
COVID-19 = conditions: cited from earlier work
endothelial cells = conditions: MR activation; result in words; cited from earlier work

C[C@@H]1C[C@H]2[C@@H]3CCC4=CC(=O)C=C[C@]4(C)[C@@]3(F)[C@@H](O)C[C@]2(C)[C@@]1(O)C(=O)CO [HIDEX, dexamethasone]
Resorption of pneumonia on day 5 (number of patients) (SARS-CoV-2; 120 h): 15 | Fasting glucose (SARS-CoV-2; after 5 d, mean ± SD, baseline HIDEX 5.9 ± 2.0, SPIDEX 6.89 ± 3.22): 11.69 ± 6.21 mmol/L | Breath rate/min (SARS-CoV-2; after 5 d, mean ± SD, baseline HIDEX 24.8 ± 4.6, SPIDEX 24.2 ± 4.1): 18.4 ± 3.1 min⁻¹ | CRP (SARS-CoV-2; after 5 d, mean ± SD, baseline HIDEX 72.4 ± 61.7, SPIDEX 65.75 ± 50.9): 28.1 ± 22.9 mg/L | HR/min (SARS-CoV-2; after 5 d, mean ± SD, baseline HIDEX 84.7 ± 10.8, SPIDEX 83.8 ± 11.8): 89.1 ± 10.6 min⁻¹ | BPdiast., mm Hg (SARS-CoV-2; after 5 d, mean ± SD, baseline HIDEX 86 ± 8.6, SPIDEX 85.25 ± 12.40): 89.0 ± 10.6 mm Hg | Blood oxygen, % (SARS-CoV-2; after 5 d, mean ± SD, baseline HIDEX 91.8 ± 3.6, SPIDEX 91.7 ± 3.3): 94.1 ± 3.0% | D-dimer (SARS-CoV-2; after 5 d, mean ± SD, baseline HIDEX 736.7 ± 680.6, SPIDEX 755.5 ± 606.1): 574.8 ± 306.4 ng/mL | CRP, mg/l (range in brackets) (SARS-CoV-2; after 5 d, range, baseline HIDEX 6.4-204, SPIDEX 10.2-209): (2.8-83.5) mg/l | D-dimer, ng/ml (range in brackets) (SARS-CoV-2; after 5 d, range, baseline HIDEX 85-2500, SPIDEX 145-2500): (38-2800) ng/ml | Fasting blood glucose compared to baseline (SARS-CoV-2; after 5 d, result in words): significantly elevated | Loss of smell/taste, % of patients (SARS-CoV-2; after 5 days treatment, baseline 85% (spironolactone/low dose dexamethasone), 82.5% (high dose dexamethasone)): 75% | BPsyst., mm Hg (SARS-CoV-2; after 5 d of treatment, mean ± SD, baseline HIDEX 139.6 ± 15.5, SPIDEX 137.5 ± 22.5): 150.1 ± 20.1 mm Hg | Deaths (number of patients) (SARS-CoV-2; of 40 patients per group): 1 | Deterioration of the Chest X-ray picture assessed on the 5th day (number of patients) (SARS-CoV-2; of 40 patients per group): 4

C[C@]12CCC(=O)C=C1C=C[C@@H]1[C@@H]2CC[C@@]2(C)[C@H]1CC[C@@]21CCC(=O)O1 [canrenone]
Patients requiring ventilation (COVID-19; group B given canrenone, group A 49%): 20% | Mortality (COVID-19; group B given canrenone, group A conventional treatment 36%): 13% | D-Dimer levels (COVID-19; result in words, rose significantly in control group): fell

CC(=O)S[C@@H]1CC2=CC(=O)CC[C@]2(C)[C@H]2CC[C@@]3(C)[C@@H](CC[C@@]34CCC(=O)O4)[C@H]12 [spironolactone]
Exocytosis of Weibel-Palade bodies / Von Willebrand Factor (endothelial cells): blocked
